Patent US12595243B2, “Modulators of extracellular signal-regulated kinase” (GEN1E LIFESCIENCES INC., priority 2023, dated 2026)
Where two headings read alike, the source gives them in different places.

Assays:
[1] = test system: melanoma cell line RPMI-7951; assay: Cytotoxicity in cancer cell lines (CellTiter-Glo), RPMI-7951; type: cell-based; conditions: Homo sapiens
Excerpt: (§1) All cells were obtained from ATCC. […] Normocin® was obtained from InvivoGen. FBS was obtained from Gibco. […] All test compounds were synthesized as described herein.

[2] = Cytotoxicity in primary cells (CellTiter-Glo), PBMC; type: cell-based; conditions: mean of three tests
Excerpt: as §1

[3] = test system: immortalized human T lymphocyte Jurkat cells; assay: Cytotoxicity in cancer cell lines (CellTiter-Glo), Jurkat; type: cell-based; conditions: Jurkat cells, mean of three tests
Excerpt: as §1

[4] = test system: human pancreatic carcinoma cell line PL-45; assay: Cytotoxicity in cancer cell lines (CellTiter-Glo), PL-45; conditions: PL45, 48 h, read-out: Cytotoxicity EC50 at 48 hours, PL-45
Method: (§2) The cytotoxicity of test compounds was determined for several cell lines including melanoma cell line RPMI-7951, melanoma cell line Sk-Mel-28, melanoma cell line A375, melanoma cell line U87, glioblastoma cell line U87, immortalized human T lymphocyte Jurkat cells, and human pancreatic carcinoma cell line PL-45.
(§3) All cells were obtained from ATCC. RPMI, DMEM, EMEM and pen/strep were obtained from Invitrogen. Normocin® was obtained from InvivoGen. FBS was obtained from Gibco. Cell viability reagent Cell-titer glow was obtained from Promega.
(§4) The growth media for A375 and PL45 cells was DMEM supplemented with antibiotic/anti-mycotic pen/strep and Normocin® (InvivoGen) and 10% FBS.
(§5) Ten (10) mM solutions of each of the test compounds were prepared in dimethyl sulfoxide (DMSO) and serially diluted in DMSO to provide solutions having concentrations of the test compound of 3 mM, 1 mM, 0.3 mM, 0.1 mM, 0.03 mM, or 0.01 mM. Forty (40) μL of each of the solutions were further diluted to 400 μL in the cell specific complete media to provide 10× stock solutions having a 1 mM, 300 μM, 100 μM, 30 μM, 10 μM, 3 μM, 1 μM, or 0.3 μM of the test compound. Ten (10) μL of DMSO was diluted to 400 μL in the complete media and used as the 0 μM control.
(§6) For the cytotoxicity studies, all cells were grown in their respective complete media. Confluent cells were harvested and plated into two 96-well tissue culture treated plates at 5,000-8,000 cells/wells in 180 μL media. Twenty (20) μL of each of the 10× stock solutions were added to the wells and mixed.
(§7) After incubating for 24 h, media was aspirated out and replaced with 180 μL/well of the fresh media and 20 μL/well of the 10× stock solutions in duplicate wells in duplicate plates (Plates 1 and 2; and 3 and 4) and in quadruplicate wells (Plate 5) were added, mixed and cultured for 48 hours. The final concentrations of each test compound were 100 μM, 30 μM, 10 μM, 3 μM, 1 μM, 0.3 μM, 0.1 μM and 0 μM.
(§8) After 48 hours and/or 72 hours following addition of the test compounds, one plate each was removed from the incubator, the media aspirated out, 100 μL of CellTiter-Glo® reagent added to each well, and the resulting luminescent signals measured using a VICTOR-2® plate reader.
(§9) The data from the plate reader were exported to GraphPad (Prism) and data processed using non-linear regression and EC50 value determined.

[5] = test system: melanoma cell line Sk-Mel-28; assay: Cytotoxicity in cancer cell lines (CellTiter-Glo), Sk-Mel-28; type: cell-based; conditions: Homo sapiens, Sk-Mel-28 cells, mean of three tests
Excerpt: as §1

[6] = test system: glioblastoma cell line U87; assay: Cytotoxicity in cancer cell lines (CellTiter-Glo), U87; type: cell-based; conditions: Homo sapiens, U-87 MG, U87 cells, mean of three tests
Excerpt: as §1

melanoma cell line A375 = assay: Cytotoxicity in cancer cell lines (CellTiter-Glo), A375; conditions: A375 cells, mean of three tests
Method: as §2, §3, §4, §5, §6, §7, §8, §9

[7] = RPMI-7951, 48 h, read-out: Cytotoxicity EC50 at 48 hours, RPMI
[8] = RPMI-7951, 72 h, read-out: Cytotoxicity EC50 at 72 hours, RPMI
[9] = 48 h, read-out: Cytotoxicity EC50 at 48 hours, Jurkat
[10] = 72 h, read-out: Cytotoxicity EC50 at 72 hours, Jurkat
[11] = SK-MEL-28, 48 h, 48 h, read-out: Cytotoxicity EC50 at 48 hours, Sk mel
[12] = SK-MEL-28, 72 h, 72 h, read-out: Cytotoxicity EC50 at 72 hours, Sk mel
[13] = 48 h, read-out: Cytotoxicity EC50 at 48 hours, U87
[14] = 72 h, read-out: Cytotoxicity EC50 at 72 hours, U87
[15] = Homo sapiens, A-375, 48 h, read-out: Cytotoxicity EC50 at 48 hours, A375, 48 h
[16] = Homo sapiens, A-375, 72 h, read-out: Cytotoxicity EC50 at 72 hours, A375, 72 h
[17] = read-out: Cytotoxicity EC50 at 48 hours, A375, 48 h

| SMILES | EC50 [4] [nM] | EC50 (melanoma cell line A375; [15]) [nM] | other results |
| --- | --- | --- | --- |
| O=S1(=O)C=CC(OS(=O)(=O)c2ccc3ccccc3c2)C1 (stereo not shown) [(1), 1,1-dioxido-2,3-dihydrothiophen-3-yl naphthalene-2-sulfonate] | 2100 | 4000 | EC50 [1, 7]: 1000 nM; EC50 [1, 8]: 4000 nM; EC50 at 48 h [2]: 400 nM; EC50 at 72 h [2]: 400 nM; EC50 [3, 9]: 3 µM; EC50 [3, 10]: 5 µM; EC50 [5, 11]: 4000 nM; EC50 [5, 12]: 300 nM; EC50 [6, 13]: 1000 nM; EC50 [6, 14]: 4000 nM; EC50 (melanoma cell line A375; [16]): 800 nM |
| O=S1(=O)C=CC(OS(=O)(=O)c2ccc(-c3ccccc3)cc2)C1 (stereo not shown) [(17), 1,1-dioxido-2,3-dihydrothiophen-3-yl [1,1′-biphenyl]-4-sulfonate] | – | – | EC50 [1, 7]: 1000 nM; EC50 [1, 8]: 400 nM; EC50 at 48 h [2]: 500 nM; EC50 at 72 h [2]: 500 nM; EC50 [3, 9]: 9 µM; EC50 [3, 10]: 2 µM; EC50 [5, 11]: 3200 nM; EC50 [5, 12]: 800 nM; EC50 [6, 13]: 2000 nM; EC50 [6, 14]: 900 nM; EC50 (melanoma cell line A375; [16]): 10000 nM; EC50 (melanoma cell line A375; [17]): 2600 nM |
| O=S1(=O)C=CC(OS(=O)(=O)c2ccc(Oc3ccccc3)cc2)C1 (stereo not shown) [(18), 1,1-dioxido-2,3-dihydrothiophen-3-yl 4-phenoxybenzenesulfonate] | – | 2000 | EC50 at 48 h [2]: 200 nM; EC50 at 72 h [2]: 21000 nM; EC50 [5, 11]: 2000 nM; EC50 [5, 12]: 3000 nM; EC50 [6, 13]: 1000 nM |
| O=S1(=O)C=CC(OS(=O)(=O)c2ccc(COc3ccccc3)cc2)C1 (stereo not shown) [(29), 1,1-dioxido-2,3-dihydrothiophen-3-yl 4-(phenoxymethyl)benzenesulfonate] | 1000 | 10000 | – |
| COS(=O)(=O)c1ccc2ccccc2c1 [(30), methyl naphthalene-2-sulfonate] | 8800 | > 100000 | – |
| O=S1(=O)C=CC(OS(=O)(=O)c2ccc(-c3ccccc3)cc2)C1 (stereo not shown) [(33), 1,1-dioxido-2,3-dihydrothiophen-3-yl [1,1′-biphenyl]-4-sulfonate] | 2300 | – | EC50 (melanoma cell line A375; [17]): 1000 nM |
| O=S1(=O)C=CC(OS(=O)(=O)c2ccc(C3CCCCC3)cc2)C1 (stereo not shown) [(34), 1,1-dioxido-2,3-dihydrothiophen-3-yl 4-cyclohexylbenzenesulfonate] | 900 | 1500 | – |
| O=S1(=O)C=CC(OS(=O)(=O)c2cccc(C3CCCCC3)c2)C1 (stereo not shown) [(35), 1,1-dioxido-2,3-dihydrothiophen-3-yl 3-cyclohexylbenzenesulfonate] | 1200 | 1000 | – |
| O=S1(=O)C=CC(OS(=O)(=O)c2ccc(OC3CCCCC3)cc2)C1 (stereo not shown) [(36), 1,1-dioxido-2,3-dihydrothiophen-3-yl 4-(cyclohexyloxy)benzenesulfonate] | 2100 | 4300 | – |
| O=S1(=O)C=CC(OS(=O)(=O)c2cccc(OC3CCCCC3)c2)C1 (stereo not shown) [(37), 1,1-dioxido-2,3-dihydrothiophen-3-yl 3-(cyclohexyloxy)benzenesulfonate] | 1600 | 2800 | – |
| O=C(c1ccccc1)c1ccc(S(=O)(=O)OC2C=CS(=O)(=O)C2)cc1 (stereo not shown) [(38), 1,1-dioxido-2,3-dihydrothiophen-3-yl 4-benzoylbenzenesulfonate] | 500 | 200 | – |
| O=S1(=O)C=CC(OS(=O)(=O)c2ccc(C(O)c3ccccc3)cc2)C1 (stereo not shown) [(39), 1,1-dioxido-2,3-dihydrothiophen-3-yl 4-(hydroxy(phenyl)methyl)benzenesulfonate] | 1500 | 1300 | – |
| Cc1cc(Oc2ccccc2)ccc1S(=O)(=O)OC1C=CS(=O)(=O)C1 (stereo not shown) [(40), 1,1-dioxido-2,3-dihydrothiophen-3-yl 2-methyl-4-phenoxybenzenesulfonate] | 200 | 300 | – |
| COc1cc(Oc2ccccc2)ccc1S(=O)(=O)OC1C=CS(=O)(=O)C1 (stereo not shown) [(41), 1,1-dioxido-2,3-dihydrothiophen-3-yl 2-methoxy-4-phenoxybenzenesulfonate] | 500 | 600 | – |
| Cc1cc(S(=O)(=O)OC2C=CS(=O)(=O)C2)ccc1Oc1ccccc1 (stereo not shown) [(42)] | 1200 | 500 | – |
| COc1cc(S(=O)(=O)OC2C=CS(=O)(=O)C2)ccc1Oc1ccccc1 (stereo not shown) [(43), 1,1-dioxido-2,3-dihydrothiophen-3-yl 3-methoxy-4-phenoxybenzenesulfonate] | 610 | 3120 | – |
| O=S1(=O)C=CC(OS(=O)(=O)c2ccc(Sc3ccccc3)cc2)C1 (stereo not shown) [(44), 1,1-dioxido-2,3-dihydrothiophen-3-yl 4-(phenylthio)benzenesulfonate] | 800 | 3210 | – |
| O=S1(=O)C=CC(OS(=O)(=O)c2ccc(S(=O)(=O)c3ccccc3)cc2)C1 (stereo not shown) [(45), 1,1-dioxido-2,3-dihydrothiophen-3-yl 4-(phenylsulfonyl)benzenesulfonate] | 2400 | 25000 | – |
| CC(C)Nc1cc(-c2c[nH]c(C(=O)N[C@H](CO)c3cccc(Cl)c3)c2)c(Cl)cn1 [Ulixertinib, ulixertinib, reference compound] | 14000 | 600 | EC50 at 48 h [2]: 31000 nM |
